In ChEMBL document CHEMBL4819133, “Exploiting the HSP60/10 chaperonin system as a chemotherapeutic target for colorectal cancer” (Bioorg Med Chem, 2021):
Calls of active or inactive are those of the source. The calls are words filed in the database; no cut-off is given here.

Tests used:
[1] = Cytotoxicity against human THLE-3 cells assessed as reduction in cell viability measured after 48 hrs by AlamarBlue assay; format: cell-based; conditions: for CC50 at 48 h: THLE-3 cells; for CC50: thle-3, 48 h
DLD-1 [2] = test: Inhibition of clonogenicity in human DLD-1 cells assessed as reduction in number of colony formation incubated for 72 hrs followed by culturing in fresh compound-free medium for 7 days by crystal violet staining based analysis; format: functional, cell-based
HSP60/HSP10 = HSP60/HSP10 (Homo sapiens, UniProt P10809); test: Inhibition of human mitochondrial HSP60/10-mediated refolding of the denatured malate dehydrogenase; format: mitochondria, Mitochondria
Chain of HSP60/HSP10 (P10809 whole entry): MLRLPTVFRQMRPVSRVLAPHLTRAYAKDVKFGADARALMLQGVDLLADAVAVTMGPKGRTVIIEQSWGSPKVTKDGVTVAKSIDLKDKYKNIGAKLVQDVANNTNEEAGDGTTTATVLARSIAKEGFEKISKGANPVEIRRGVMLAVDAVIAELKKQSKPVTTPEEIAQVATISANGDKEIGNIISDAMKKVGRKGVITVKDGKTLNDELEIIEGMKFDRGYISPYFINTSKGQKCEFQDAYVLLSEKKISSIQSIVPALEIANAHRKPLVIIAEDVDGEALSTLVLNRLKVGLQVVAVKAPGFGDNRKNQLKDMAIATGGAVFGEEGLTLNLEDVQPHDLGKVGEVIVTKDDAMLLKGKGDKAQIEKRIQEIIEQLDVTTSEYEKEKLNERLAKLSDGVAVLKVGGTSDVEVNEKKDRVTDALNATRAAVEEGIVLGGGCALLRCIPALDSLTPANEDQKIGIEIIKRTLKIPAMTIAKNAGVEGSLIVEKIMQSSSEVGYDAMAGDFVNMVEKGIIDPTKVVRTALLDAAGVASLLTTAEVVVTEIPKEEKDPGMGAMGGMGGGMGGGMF
Chain of HSP60/HSP10 (P61604 whole entry, further chain): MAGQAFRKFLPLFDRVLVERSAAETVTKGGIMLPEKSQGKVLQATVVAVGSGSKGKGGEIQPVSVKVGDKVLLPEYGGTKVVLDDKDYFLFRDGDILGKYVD

E. coli GroEL/ES [3] = target: T1, E. coli GroEL/ES (Escherichia coli, UniProt P0A6F5); test: Inhibition of Escherichia coli GroEL/ES-mediated refolding of the denatured rhodanese; format: protein-complex assay
T1 sequence (P0A6F5 whole entry, looked up): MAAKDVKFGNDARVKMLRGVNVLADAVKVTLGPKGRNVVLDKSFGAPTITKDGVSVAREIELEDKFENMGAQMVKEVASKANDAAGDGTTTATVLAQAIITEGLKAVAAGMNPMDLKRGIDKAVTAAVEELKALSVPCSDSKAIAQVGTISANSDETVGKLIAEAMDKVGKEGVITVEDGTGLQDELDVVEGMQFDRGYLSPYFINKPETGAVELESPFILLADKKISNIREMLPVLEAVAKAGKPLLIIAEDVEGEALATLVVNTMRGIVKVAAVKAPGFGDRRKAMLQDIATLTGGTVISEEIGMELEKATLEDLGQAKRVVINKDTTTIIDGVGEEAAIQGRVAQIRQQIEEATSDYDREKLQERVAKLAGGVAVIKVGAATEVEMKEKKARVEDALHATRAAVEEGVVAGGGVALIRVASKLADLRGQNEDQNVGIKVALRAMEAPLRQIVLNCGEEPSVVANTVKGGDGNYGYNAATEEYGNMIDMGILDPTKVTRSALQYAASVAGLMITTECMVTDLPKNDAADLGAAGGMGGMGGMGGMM

HT-29 [4] = test: Inhibition of clonogenicity in human HT-29 cells assessed as reduction in colony formation at 50 uM incubated for 72 hrs followed by culturing in fresh compound-free medium for 7 days by crystal violet staining based analysis; format: functional
HCT-116 [5] = test: Inhibition of clonogenicity in human HCT-116 cells assessed as reduction in number of colony formation incubated for 72 hrs followed by culturing in fresh compound-free medium for 7 days by crystal violet staining based analysis; format: functional, cell-based
HT-29 [6] = test: Inhibition of clonogenicity in human HT-29 cells assessed as reduction in size of colony incubated for 72 hrs followed by culturing in fresh compound-free medium for 7 days by crystal violet staining based analysis; format: functional, cell-based
HT-29 [7] = test: Inhibition of clonogenicity in human HT-29 cells assessed as reduction in number of colony formation incubated for 72 hrs followed by culturing in fresh compound-free medium for 7 days by crystal violet staining based analysis; format: functional, cell-based
HCT-116 [8] = test: Inhibition of cell migration in human HCT-116 cells at 10 uM measured at >=20 hrs by scratch wound healing assay based phase contrast microscopy; format: functional; conditions: time hrs >=20
HT-29 [9] = test: Cytotoxicity against human HT-29 cells assessed as reduction in cell viability measured after 48 hrs by AlamarBlue assay; format: functional, cell-based; conditions: HT-29, 48 h
DLD-1 [10] = test: Inhibition of clonogenicity in human DLD-1 cells assessed as reduction in colony formation at 50 uM incubated for 72 hrs followed by culturing in fresh compound-free medium for 7 days by crystal violet staining based analysis; format: functional
DLD-1 [11] = test: Inhibition of clonogenicity in human DLD-1 cells assessed as reduction in size of colony incubated for 72 hrs followed by culturing in fresh compound-free medium for 7 days by crystal violet staining based analysis; format: functional, cell-based
HCT-116 [12] = test: Inhibition of clonogenicity in human HCT-116 cells assessed as reduction in size of colony incubated for 72 hrs followed by culturing in fresh compound-free medium for 7 days by crystal violet staining based analysis; format: functional, cell-based
[13] = (§1) Cytotoxicity against human HEK293 cells assessed as reduction in cell viability measured after 48 hrs by AlamarBlue assay; format: cell-based; conditions: HEK293 cells
HCT-116 [14] = test: Inhibition of clonogenicity in human HCT-116 cells assessed as reduction in colony formation at 50 uM incubated for 72 hrs followed by culturing in fresh compound-free medium for 7 days by crystal violet staining based analysis; format: functional
HCT-116 [15] = test: Induction of apoptosis in human HCT-116 cells at 100 uM incubated for 48 hrs by AnnexinV-FITC/PI staining based flow cytometry; format: functional, cell-based
HCT-116 [16] = test: Cytotoxicity against human HCT-116 cells assessed as reduction in cell viability measured after 48 hrs by AlamarBlue assay; format: functional, cell-based; conditions: HCT-116, 48 h
HCT-116 [17] = test: Inhibition of cell migration in human HCT-116 cells measured at 72 hrs by scratch wound healing assay based phase contrast microscopy; format: functional; conditions: HCT-116, 72 h
FHC = test: Cytotoxicity against human FHC cells assessed as reduction in cell viability measured after 48 hrs by AlamarBlue assay; format: cell-based
DLD-1 [18] = test: Cytotoxicity against human DLD-1 cells assessed as reduction in cell viability measured after 48 hrs by AlamarBlue assay; format: functional, cell-based; conditions: DLD-1, 48 h
[19] = Inhibition of refolded MDH (unknown origin)-mediated oxidation of NADPH in presence of mesoxalic acid treated with compound after refolding of the denatured enzyme; design: species or system Homo sapiens
[20] = Cytotoxicity against human FHs74Int cells assessed as reduction in cell viability measured after 48 hrs by AlamarBlue assay; format: cell-based
HCT-116 [21] = test: Induction of cell death in human HCT-116 cells assessed as loss of cell monolayer integrity and cytoplasm extrusion at 100 uM measured for 72 hrs by phase contrast microscopy; format: functional, cell-based
E. coli GroEL/ES [22] = target: T1, E. coli GroEL/ES; test: Inhibition of Escherichia coli GroEL/ES-mediated refolding of the denatured malate dehydrogenase; format: protein-complex assay
HEK293 = test: as §1; format: cell-based; conditions: hek293, 48 h
HCT-116 [23] = test: Cytostatic activity in human HCT-116 cells assessed as viable cells at 100 uM incubated for 48 hrs by AnnexinV/PI staining based flow cytometry; format: functional, cell-based
[24] = target: T2, Thiosulfate sulfurtransferase (Homo sapiens, UniProt Q16762); test: Inhibition of refolded Rhodanese (unknown origin)-mediated conversion of cyanide to thiocyanate treated with compound after refolding of the denatured enzyme
T2 sequence (Q16762 whole entry): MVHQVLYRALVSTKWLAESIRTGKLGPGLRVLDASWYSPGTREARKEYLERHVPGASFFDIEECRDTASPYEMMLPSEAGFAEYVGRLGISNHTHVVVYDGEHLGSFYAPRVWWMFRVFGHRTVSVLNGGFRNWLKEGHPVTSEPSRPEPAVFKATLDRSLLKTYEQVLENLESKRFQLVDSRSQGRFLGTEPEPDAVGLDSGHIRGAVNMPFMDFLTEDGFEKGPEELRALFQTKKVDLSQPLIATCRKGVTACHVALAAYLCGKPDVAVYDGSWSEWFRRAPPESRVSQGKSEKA

HCT-116 [25] = test: Induction of apoptosis in human HCT-116 cells assessed as compact cell monolayer at 100 uM measured for 72 hrs by phase contrast microscopy; format: functional, cell-based
HCT-116 [26] = test: Inhibition of cell migration in human HCT-116 cells at 0.14 to 100 uM measured for 72 hrs by scratch wound healing assay based phase contrast microscopy; format: functional; conditions: dose 0.14-100 µM

Compound	CC50 at 48 h [1]	EC50 (DLD-1 [2])	inhibition (DLD-1 [2])	IC50 (HSP60/HSP10)	IC50 (E. coli GroEL/ES [3])	inhibition at 50 µM (HT-29 [4])	EC50 (HCT-116 [5])	inhibition (HCT-116 [5])	EC50 (HT-29 [6])	EC50 (HT-29 [7])	EC50 (HT-29 [9])	EC50 (DLD-1 [11])	EC50 (HCT-116 [12])	EC50 (HCT-116 [16])	EC50 (HCT-116 [17])	CC50 (FHC)	EC50 (DLD-1 [18])	IC50 [19]	CC50 [20]	IC50 (E. coli GroEL/ES [22])	also measured
O=C(Nc1ccc(Sc2nc3ccccc3s2)c(Cl)c1)c1cccc(Br)c1O	18 µM	21 µM	Dose-Dependent Effect	7.7 µM	5.9 µM	100%	17 µM	Dose-Dependent Effect	12 µM	32 µM	20 µM	11 µM	9.1 µM	12 µM	2 µM	> 100 µM	22 µM	> 62.5 µM	> 100 µM	10 µM	inhibition (HT-29 [6]): Dose-Dependent Effect; inhibition (HT-29 [7]): Dose-Dependent Effect; inhibition (HCT-116 [8]): Active; inhibition at 50 µM (DLD-1 [10]): 100%; inhibition (DLD-1 [11]): Dose-Dependent Effect; inhibition (HCT-116 [12]): Dose-Dependent Effect; CC50 at 48 h [13]: 68 µM; inhibition at 50 µM (HCT-116 [14]): 100%; Activity (HCT-116 [15]): Active; Activity (HCT-116 [21]): Active
COc1ccc(S(=O)(=O)Nc2ccc3oc(-c4ccc(NC(=O)c5cccc(C)c5[N+](=O)[O-])cc4)nc3c2)cc1		> 50 µM		72 µM	28 µM		19 µM		2 µM	26 µM		1.6 µM	2.6 µM	4.4 µM	2.3 µM	> 100 µM	1.5 µM	> 62.5 µM	> 100 µM	33 µM	CC50 [1]: 22 µM; inhibition (HT-29 [4]): Active; inhibition (DLD-1 [10]): Active; CC50 (HEK293): 12 µM; inhibition (HCT-116 [14]): Active; Activity (HCT-116 [23]): Active; IC50 [24]: > 100 µM; Activity (HCT-116 [25]): inactive; inhibition (HCT-116 [26]): Active
Cc1ccc(S(=O)(=O)Nc2ccc(-c3nc4cc(NS(=O)(=O)c5ccc(C)cc5)ccc4o3)cc2)cc1	15 µM	16 µM	Dose-Dependent Effect	> 100 µM	30 µM	100%	14 µM	Dose-Dependent Effect	10 µM	13 µM	11 µM	12 µM	15 µM	5.9 µM	9 µM	51 µM	13 µM	> 62.5 µM	74 µM	27 µM	inhibition (HT-29 [6]): Dose-Dependent Effect; inhibition (HT-29 [7]): Dose-Dependent Effect; inhibition (HCT-116 [8]): Active; inhibition at 50 µM (DLD-1 [10]): 100%; inhibition (DLD-1 [11]): Dose-Dependent Effect; inhibition (HCT-116 [12]): Dose-Dependent Effect; CC50 at 48 h [13]: 32 µM; inhibition at 50 µM (HCT-116 [14]): 100%; Activity (HCT-116 [15]): Active; IC50 [24]: > 100 µM; Activity (HCT-116 [21]): Active
COc1c(Br)cccc1C(=O)Nc1ccc(Sc2nc3ccccc3s2)c(Cl)c1	14 µM	11 µM	Dose-Dependent Effect		16 µM	100%	11 µM	Dose-Dependent Effect	13 µM	27 µM	11 µM	10 µM	12 µM	8.5 µM	5.5 µM	> 100 µM	10 µM	> 62.5 µM	> 100 µM	37 µM	inhibition (HT-29 [6]): Dose-Dependent Effect; inhibition (HT-29 [7]): Dose-Dependent Effect; inhibition (HCT-116 [8]): Active; inhibition at 50 µM (DLD-1 [10]): 100%; inhibition (DLD-1 [11]): Dose-Dependent Effect; inhibition (HCT-116 [12]): Dose-Dependent Effect; CC50 at 48 h [13]: 40 µM; inhibition at 50 µM (HCT-116 [14]): 100%; Activity (HCT-116 [15]): Active; Activity (HCT-116 [21]): Active
COc1ccc(S(=O)(=O)Nc2ccc3oc(-c4ccc(NC(=O)c5ccc(Cl)s5)cc4)nc3c2)cc1		> 50 µM		61 µM	15 µM		2.7 µM		0.71 µM	2.3 µM	1.9 µM	11 µM	1.1 µM	5.4 µM	5.7 µM	> 100 µM	4.6 µM	> 62.5 µM	> 100 µM	18 µM	CC50 [1]: 57 µM; inhibition (HT-29 [4]): Active; inhibition (DLD-1 [10]): Active; CC50 (HEK293): 15 µM; inhibition (HCT-116 [14]): Active; Activity (HCT-116 [23]): Active; IC50 [24]: > 100 µM; Activity (HCT-116 [25]): inactive; inhibition (HCT-116 [26]): Active
